The assay has as its target human PD-L1 / Human PD-1 (Homo sapiens (Human), UniProt Q9NZQ7). Put plainly: Enzyme-Linked Immunosorbent Assay (ELISA), PD-1/PD-L1 binding. Particulars: plate-coated human PD-L1, biotinylated human PD-1. The procedure:
Biological Example: Enzyme-Linked Immunosorbent Assay—ELISA
96 Well plates were coated with […] of human PD-L1 (obtained from R&D) in PBS overnight at 4° C. The wells were then blocked with 2% BSA in PBS (W/V) with 0.05% TWEEN-20 for 1 hour at 37° C. The plates were washed 3 times with PBS/0.05% TWEEN-20 and the compounds were serial diluted (1:5) in dilution medium and added to the ELISA plates. Human PD-1 and biotin 0.3 μg/mL (ACRO Biosystems) were added and incubated for 1 hour at 37° C. then washed 3 times with PBS/0.05% TWEEN-20. A second block was performed with 2% BSA in PBS (W/V)/0.05% TWEEN-20 for 10 min at 37° C. and was washed 3 times with PBS/0.05% TWEEN-20. Streptavidin-HRP was added for 1 hour at 37° C. then washed 3 times with PBS/0.05% TWEEN-20. TMB substrate was added and reacted for 20 min at 37° C. A stop solution (2 N aqueous H2SO4) was added. The absorbance was read at 450 nm using a micro-plate spectrophotometer.
A general note: In an ELISA, binding on a coated surface is turned into a signal by an enzyme label.

human PD-L1 / Human PD-1, sequence (Q9NZQ7 19-239): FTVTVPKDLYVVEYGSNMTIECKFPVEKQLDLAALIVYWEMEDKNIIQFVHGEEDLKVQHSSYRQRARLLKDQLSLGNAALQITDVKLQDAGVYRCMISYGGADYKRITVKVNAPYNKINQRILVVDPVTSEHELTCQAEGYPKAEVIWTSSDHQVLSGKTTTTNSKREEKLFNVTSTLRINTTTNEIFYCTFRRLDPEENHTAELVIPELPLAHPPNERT

Turning to `Cc1c(OCCCN2CCCCC2(C)C)cccc1-c1cccc2c1CC[C@@H]2Oc1cc(OCc2cc(C#N)cc(C#N)c2)c(CN[C@H]2CCC(=O)NC2)cc1Cl`, the IC50 fell in the range of 5 to 500 nM. With `N#Cc1cncc(COc2cc(O[C@H]3CCc4c(-c5cccc(OCCCN6CCC(F)CC6)c5Cl)cccc43)c(Cl)cc2CN2CC3(C2)NC(=O)NC3=O)c1` the figure was less than 5 nM; with `Cc1c(OCCCN2CCC(O)CC2)cccc1-c1cccc2c1CC[C@@H]2Oc1cc(OCc2cncc(C#N)c2)c(CN[C@H](C(=O)OC(C)(C)C)[C@@H](C)O)cc1Cl`, 5 to 500 nM; with `CCOc1cc(O[C@H]2CCc3c(-c4cccc(OCCCN5CC[C@@H](O)C5)c4C)cccc32)c(Cl)cc1CN[C@@](C)(CO)C(=O)OC(C)C`, 5 to 500 nM. `CCOc1cc(O[C@H]2CCc3c(-c4cccc(OCCCN5CCC5(C)C)c4C)cccc32)c(Cl)cc1CNC[C@@H]1CCC(=O)N1` registered an IC50 of less than 5 nM. As to `N#Cc1cncc(COc2cc(O[C@H]3CCc4c(-c5cccc(OCCCN6CCC(F)CC6)c5Cl)cccc43)c(Cl)cc2CN[C@@H]2CCOC[C@H]2O)c1`, the IC50 was less than 5 nM.

The compound `CC(=O)OC1CCN(CCCOc2cccc(-c3cccc4c3CC[C@@H]4Oc3cc(OCc4cncc(C#N)c4)c(CN[C@@H]4CCCC[C@@H]4O)cc3Cl)c2Cl)CC1` came in with an IC50 of less than 5 nM. Regarding `N#Cc1cncc(COc2cc(O[C@H]3CCc4c(-c5cccc(OCCCN6CC7(C6)CC(F)(F)C7)c5Cl)cccc43)c(Cl)cc2CN2CC3(C2)NC(=O)NC3=O)c1`, the IC50 was in the range of 5 to 500 nM. In turn, `CN1CCC(COc2cccc(-c3cccc4c3CC[C@@H]4Oc3cc(OCc4cncc(C#N)c4)c(CNC[C@H]4CCC(=O)N4)cc3Cl)c2Cl)C1` (some centres unmarked) gave an IC50 of less than 5 nM. As for `CCOc1cc(O[C@H]2CCc3c(-c4cccc(OCCCN(C)C(C)(C)C)c4C)cccc32)c(Cl)cc1CNC[C@@H]1CCC(=O)N1`, the IC50 was less than 5 nM. With `N#Cc1cncc(COc2cc(O[C@H]3CCc4c(-c5cccc(OCCCN6CC7(CC(O)C7)C6)c5Cl)cccc43)c(Cl)cc2CN2CCC3(C2)NC(=O)NC3=O)c1` (some centres unmarked) the figure was 5 to 500 nM; with `CCOc1cc(O[C@@H]2CCc3c(-c4cccc(OCCCN5CCC5(C)C)c4C)cccc32)c(Cl)cc1CN(C)CCC(=O)O`, 500 to 20000 nM. `N#Cc1cc(C#N)cc(COc2cc(O[C@@H]3c4cccc(-c5cccc(OCCCN6CC(O)C6)c5Cl)c4C[C@@H]3F)c(Cl)cc2CNC[C@H]2CCC(=O)N2)c1` yielded an IC50 of less than 5 nM. Compound `CCOc1cc(O[C@H]2CCc3c(-c4cccc(OCCCN5CCC5(C)C)c4C)cccc32)c(Cl)cc1CNCC1CCC(=O)N1C` (some centres unmarked) displayed an IC50 of 5 to 500 nM. As for `CCOc1cc(O[C@H]2CCc3c(-c4cccc(OCCCN5CC(C)(C)C5)c4C)cccc32)c(Cl)cc1CNC[C@@H]1CCC(=O)N1`, the IC50 was in the range of 5 to 500 nM.

For `CCOC(=O)CCN(C)Cc1cc(Cl)c(O[C@H]2CCc3c(-c4cccc(OCCCN5CCC5(C)C)c4C)cccc32)cc1OCC`, the IC50 fell in the range of 5 to 500 nM. `N#Cc1cncc(COc2cc(O[C@H]3CCc4c(-c5cccc(OCCCN6CCC(F)CC6)c5Cl)cccc43)c(Cl)cc2CN2CCCC3(C2)NC(=O)NC3=O)c1` (some centres unmarked) returned an IC50 of 5 to 500 nM. The compound `N#Cc1cncc(COc2cc(O[C@H]3CCc4c(-c5cccc(OCCCN6CC(F)(F)C6)c5Cl)cccc43)c(Cl)cc2CNC[C@H]2CCC(=O)N2)c1` came in with an IC50 of 5 to 500 nM. In turn, `Cc1c(OCCCN2CCC(F)CC2)cccc1-c1cc(F)cc2c1CC[C@@H]2Oc1cc(OCc2cc(C#N)cc(C#N)c2)c(CN[C@H]2CCC(=O)NC2)cc1Cl` yielded an IC50 of 5 to 500 nM. Compound `Cc1c(OCCCN2CC(O)C2)cccc1-c1cccc2c1CC[C@@H]2Oc1cc(OCc2cncc(C#N)c2)c(CN[C@H](C(=O)O)[C@@H](C)O)cc1Cl` gave an IC50 of less than 5 nM. As for `CCOc1cc(O[C@H]2CCc3c(-c4cccc(OCCCN5CCC5(C)C)c4C)cccc32)c(Cl)cc1CN1CC(C#N)C1`, the IC50 fell in the range of 5 to 500 nM. For the compound `N#Cc1cncc(COc2cc(O[C@H]3CCc4c(-c5cccc(OCCCN6CC(O)C6)c5Cl)cccc43)c(Cl)cc2CN[C@@H]2CCCC[C@@H]2O)c1`, the IC50 is less than 5 nM. In turn, `C[C@@H](O)[C@H](NCc1cc(Cl)c(O[C@H]2CCc3c(-c4cccc(OCCCN5CCCCC5)c4Cl)cccc32)cc1OCc1cncc(C#N)c1)C(=O)NS(C)(=O)=O` displayed a concentration for half-maximal inhibition (IC50) of less than 5 nM. In turn, `N#Cc1cncc(COc2cc(O[C@H]3CCc4c(-c5cccc(OCCCN6CCC(F)CC6)c5Cl)cccc43)c(Cl)cc2CNC[C@@H]2CCC(=O)N2)c1` came in with an IC50 of less than 5 nM. `Cc1c(OCCCN2CC(F)C2)cccc1-c1cccc2c1CC[C@@H]2Oc1cc(OCc2cncc(C#N)c2)c(CNCC2CCC(=O)N2)cc1Cl` (some centres unmarked) yielded an IC50 of less than 5 nM. `N#Cc1cncc(COc2cc(O[C@H]3CCc4c(-c5cccc(OCCCN6CC7(CC(F)C7)C6)c5Cl)cccc43)c(Cl)cc2CN[C@@H]2CCC[C@H]2O)c1` registered an IC50 of less than 5 nM. In turn, `N#Cc1cncc(COc2cc(O[C@H]3CCc4c(-c5cccc(OCCCN6CC7(C6)CC(F)(F)C7)c5Cl)cccc43)c(Cl)cc2CN[C@@H]2CCCC[C@@H]2O)c1` had an IC50 of less than 5 nM. Regarding `Cc1c(OCCCN2CCCC[C@@H]2C)cccc1-c1cccc2c1CC[C@@H]2Oc1cc(OCc2cc(C#N)cc(C#N)c2)c(CNC[C@H]2CCC(=O)N2)cc1Cl`, the IC50 is 5 to 500 nM. The result for `N#Cc1cncc(COc2cc(O[C@H]3CCc4c(-c5cccc(OCCCN6CCC(F)CC6)c5Cl)cccc43)c(Cl)cc2CN[C@@H]2CCOC[C@H]2F)c1` [drawing 224] reads 5 to 500 nM; that for `CC1(O)CN(Cc2cc(Cl)c(O[C@H]3CCc4c(-c5cccc(OCCCN6CCC(F)CC6)c5Cl)cccc43)cc2OCc2cncc(C#N)c2)C1`, less than 5 nM; that for `CCOc1cc(O[C@H]2CCc3c(-c4cccc(OCCCN5CCC5(C)C)c4C)cccc32)c(Cl)cc1CN(C)CC(C)(C)C(=O)O`, 5 to 500 nM. The compound `CCOc1cc(O[C@H]2CCc3c(-c4cccc(OCCCN5CC(O)C5)c4Cl)cccc32)c(Cl)cc1CN[C@@](C)(CO)C(=O)O` displayed an IC50 of less than 5 nM.

Compound `Cc1c(OCCCN2CCC(O)CC2)cccc1-c1cccc2c1CC[C@@H]2Oc1cc(OCc2cncc(C#N)c2)c(CN2CC(C(=O)O)C2)cc1Cl` had an IC50 of less than 5 nM. The result for `CCOc1cc(O[C@H]2CCc3c(-c4cccc(OCCCN5CC[C@@H](O)C5)c4C)cccc32)c(Cl)cc1CN1CCCC[C@H]1C(=O)O` reads 5 to 500 nM; that for `N#Cc1cncc(COc2cc(O[C@H]3CCc4c(-c5cccc(OCCCN6CCC6)c5Cl)cccc43)c(Cl)cc2CN[C@@H]2CCCC[C@@H]2O)c1`, less than 5 nM; that for `CCOc1cc(O[C@H]2CCc3c(-c4cccc(OCCCN5[C@H](C)CC[C@H]5C)c4C)cccc32)c(Cl)cc1CN1CCCC[C@@H]1C(=O)O`, 5 to 500 nM. The compound `CN1CCC(COc2cccc(-c3cccc4c3CC[C@@H]4Oc3cc(OCc4cncc(C#N)c4)c(CN[C@H]4CCC(=O)NC4)cc3Cl)c2Cl)C1` (some centres unmarked) gave an IC50 of 5 to 500 nM. The result for `N#Cc1cncc(-c2cc(O[C@H]3CCc4c(-c5cccc(OCCCN6CCC(F)CC6)c5Cl)cccc43)c(Cl)cc2CN[C@@H]2CCCC[C@@H]2O)c1` reads 5 to 500 nM; that for `N#Cc1cncc(COc2cc(O[C@H]3CCc4c(-c5cccc(OCCCN6CC(O)C6)c5Cl)cccc43)c(Cl)cc2CNC[C@@H]2CCC(=O)N2)c1`, less than 5 nM. As for `CN1CCC(COc2cccc(-c3cccc4c3CC[C@@H]4Oc3cc(OCc4cncc(C#N)c4)c(CN[C@@H]4CCCC[C@@H]4O)cc3Cl)c2Cl)C1` (some centres unmarked), the IC50 is less than 5 nM. In turn, `Cc1c(OCCCN2CCC(F)CC2)cccc1-c1cccc2c1CC[C@@H]2Oc1cc(OCc2cc(C#N)cc(C#N)c2)c(CN[C@H]2CCCNC2=O)cc1Cl` displayed an IC50 of 5 to 500 nM.

As to `CCOc1cc(O[C@H]2CCc3c(-c4cccc(OCCCN5CCC5(C)C)c4C)cccc32)c(Cl)cc1CN1CCNC(=O)CC1`, the IC50 was in the range of 5 to 500 nM. `N#Cc1cncc(COc2cc(O[C@H]3CCc4c(-c5cccc(OCCCN6CC(O)C6)c5Cl)cccc43)c(Cl)cc2CN2CCC(O)CC2)c1` came in with an IC50 of less than 5 nM. Consider `C[C@@](CO)(NCc1cc(Cl)c(O[C@@H]2c3cccc(-c4cccc(OCCCN5CC(F)C5)c4Cl)c3C[C@@H]2F)cc1OCc1cncc(C#N)c1)C(=O)O`, for which the IC50 is less than 5 nM.

In the case of `N#Cc1cncc(-c2cc(O[C@H]3CCc4c(-c5cccc(OCCCN6CCC(F)CC6)c5Cl)cccc43)c(Cl)cc2CNC[C@H]2CCC(=O)N2)c1`, the IC50 was in the range of 500 to 20000 nM. For `C[C@@](CO)(NCc1cc(Cl)c(O[C@H]2CCc3c(-c4cccc(OCCCN)c4Cl)cccc32)cc1OCc1cncc(C#N)c1)C(=O)O`, the concentration for half-maximal inhibition (IC50) is less than 5 nM. For the compound `Cc1c(OCCCN2CCC(F)CC2)cccc1-c1cccc2c1CC[C@@H]2Oc1cc(OCc2cc(C#N)cc(C#N)c2)c(CN[C@H]2CCC[C@H]2O)cc1Cl`, the IC50 was less than 5 nM. `Cc1c(OCCCN2CCC(F)CC2)cccc1-c1cccc2c1CC[C@@H]2Oc1cc(OCc2cc(C#N)cc(C#N)c2)c(CNC2CCNC(=O)C2)cc1Cl` (some centres unmarked): the IC50 is less than 5 nM. As to `CCOc1cc(O[C@H]2CCc3c(-c4cccc(OCCCN5CCC5(C)C)c4C)cccc32)c(Cl)cc1CNCCO`, the IC50 is less than 5 nM. Compound `Cc1c(OCCCN2CCC(C)CC2)cccc1-c1cccc2c1CC[C@@H]2Oc1cc(OCc2cc(C#N)cc(C#N)c2)c(CNC[C@@H]2CCC(=O)N2)cc1Cl` yielded an IC50 of less than 5 nM.

For `CCOc1cc(O[C@H]2CCc3c(-c4cccc(OCCCN5CCC5(C)C)c4C)cccc32)c(Cl)cc1CN(C)CCn1nn[nH]c1=O`, the IC50 was 5 to 500 nM. The compound `Cc1c(OCCCN2CCC(F)CC2)cccc1-c1cccc2c1CC[C@@H]2Oc1cc(OCc2cc(C#N)cc(C#N)c2)c(CN[C@H]2CCOC[C@H]2O)cc1Cl` displayed an IC50 of less than 5 nM. As to `Cc1c(OCCCN2CCC(O)CC2(C)C)cccc1-c1cccc2c1CC[C@@H]2Oc1cc(OCc2cc(C#N)cc(C#N)c2)c(CN[C@H]2CCC(=O)NC2)cc1Cl` (some centres unmarked), the IC50 was less than 5 nM.

Broadly, the IC50 is the concentration needed to halve the response being measured.
